Measured values taken from US5061711A, “Method of curing liver diseases by using pyrrolo quinoline quinone triesters and novel pyrrolo quinoline quinone triesters” (Mitsubishi Gas Chemical Company, Inc., priority 1989, dated 1991).

Columns and labels:
[1] = system: D-galactosamine-induced liver diseases; experiment: Pharmacological effect (1) on D-galactosamine-induced liver diseases; type: in vivo, SD rats; conditions: D-galactosamine 1 g/kg rat s.c., 23 hours, average of five rats; for Total bilirubin in serum: D-galactosamine alone 1.0; for GPT in serum: D-galactosamine alone 552; for GOT in serum: D-galactosamine alone 1067
Protocol: Pharmacological effect (1) of PQQ triesters on D-galactosamine-induced liver diseases;
Forty SD rats (male 7 weeks old, body weight: about 240 g; supplied by Japan Charles River Co.) were divided to eight groups (A-H) each consisting of five rats. All rats were fasted for 16 hours and 1.2 ml of a solution containing 0.4 mg/ml of PQQ trimethyl ester was intraperitoneally administered to the rats of group C, 1.2 ml of a solution containing 1.0 mg/ml of PQQ trimethyl ester was intraperitoneally administered to the rats of group D, 1.2 ml of a solution containing 2.0 mg/ml of PQQ trimethyl ester was intraperitoneally administered to the rats of group E, 1.2 ml of a solution containing 0.4 mg/ml of PQQ triallyl ester was intraperitoneally administered to the rats of group F, 1.2 ml of a solution containing 1.0 mg/ml of PQQ triallyl ester was intraperitoneally administered to the rats of group G, and 1.2 ml of a solution containing 2.0 mg/ml of PQQ triallyl ester was intraperitoneally administered to the rats of group H and furthermore, after 40 minutes, the same PQQ triesters in the same doses as above were intraperitoneally administered to respective rats. In these cases, the PQQ triesters were suspended in physiological saline containing 1% Tween 80 and administered to the rats. 1.2 ml of physiological saline was intraperitoneally administered to the rats of group B in place of PQQ triesters. Furthermore, after 20 minutes, 1.2 ml of a solution of 2 g of D-galactosamine in 10 ml of physiological saline was subcutaneously injected to the rats of groups B-H. Neither PQQ triesters nor D-galactosamine were administered to the rats of group A.
(§1) After 23 hours from administration of D-galactosamine, blood was collected from abdominal main artery and serum was obtained by centrifugation therefrom.
GPT, GOT and amount of total bilirubin in the serum were measured by clinical examination reagent (trademark: FUJI DRYCHEMSLIDE manufactured by Fuji Photo Film Co., Ltd.). The results are shown in Table 7 by average value of five rats.

Solubility = type: physicochemical
[2] = system: D-galactosamine-induced liver diseases; experiment: Pharmacological effect (2) on D-galactosamine-induced liver diseases; type: in vivo, SD rats; conditions: D-galactosamine 1 g/kg rat i.p., 23 hours, average of five rats; for Total bilirubin in serum: D-galactosamine alone 1.4; for GPT in serum: D-galactosamine alone 1560; for GOT in serum: D-galactosamine alone 2542
Protocol: Pharmacological effect (2) of PQQ triesters on D-galactosamine-induced liver diseases:
Forty SD rats (male, 7 weeks old, body weight: about 260 g; supplied by Japan Charles River Co.) were divided to eight groups (A-H) each consisting of five rats. All rats were fasted for 18 hours and 1.3 ml of a solution containing 1 mg/ml of PQQ trimethyl ester was orally administered to the rats of group C, 1.3 ml of a solution containing 2 mg/ml of PQQ trimethyl ester was orally administered to the rats of group D, 1.3 ml of a solution containing 3 mg/ml of PQQ trimethyl ester was orally administered to the rats of group E, 1.3 ml of a solution containing 1 mg/ml of PQQ triallyl ester was orally administered to the rats of group F, 1.3 ml of a solution containing 2 mg/ml of PQQ triallyl ester was orally administered to the rats of group G, and 1.3 ml of a solution containing 3 mg/ml of PQQ triallyl ester was orally administered to the rats of group H and furthermore, after lapse of 40 minutes, the same PQQ triesters in the same doses as above were orally administered to respective rats. In these cases, the PQQ triesters were suspended in physiological saline containing 1% Tween 80 and administered to the rats. 1.3 ml of physiological saline was orally administered to the rats of group B in place of PQQ triesters. Furthermore, after lapse of 20 minutes, 1.3 ml of a solution of d-galactosamine in 10 ml of physiological saline was intraperitoneally administered to the rats of groups B-H. Neither PQQ triesters nor D-galactosamine were administered to the rats of group A.
as §1
GPT, GOT and amount of total bilirubin in the serum were measured by clinical examination reagent (trademark: FUJI DRYCHEMSLIDE manufactured by Fuji Photo Film Co., Ltd.). The results are shown in Table 8 by average value of five rats.

mice [3] = experiment: Kidney toxicity determined by blood examination; type: in vivo, mouse; conditions: for Creatinine in serum / Urea nitrogen in serum / Glucose in serum: average of eight mice; for Creatinine in serum: None: 0.4; for Urea nitrogen in serum: None: 20; for Glucose in serum: None: 78
Protocol: (3) Kidney toxicity determined by blood examination:
After lapse of one day from the administration, the mice were fasted (only water was given) and then after 18 hours, blood was collected and serum was obtained therefrom. Glucose, urea nitrogen and creatinine in the serum were examined by clinical examination reagent (trademark: FUJI DRYCHEMSLIDE manufactured by Fuji Photo Film Co., Ltd.). The results are shown by average value of eight mice in Table 3.

mice [4] = experiment: Kidney toxicity (2) determined by blood examination; type: in vivo, mouse; conditions: average of eight mice; for Creatinine in serum: None: 0.8; for Urea nitrogen in serum: None: 23; for Glucose in serum: None: 93
Protocol: (4) Kidney toxicity (2) determined by blood examination:
The dosage per kg of body weight of mouse was 150, 400 mg and 100 mg.
After lapse of one day from the administration, the mice were fasted (only water was given) and then, after 15 hours, blood was collected and serum was obtained therefrom. Glucose, urea nitrogen and creatinine in the serum were examined by clinical examination reagent (trademark : FUJI DRYCHEMSLIDE manufactured by Fuji Photo Film Co., Ltd.). The results are shown by average value of eight mice in Table 4.

| SMILES | Total bilirubin in serum ([1]; i.p. 2 mg/kg rat twice) | GPT in serum ([1]; i.p. 2 mg/kg rat twice) | GOT in serum ([1]; i.p. 2 mg/kg rat twice) | Total bilirubin in serum ([1]; i.p. 5 mg/kg rat twice) | GPT in serum ([1]; i.p. 5 mg/kg rat twice) | GOT in serum ([1]; i.p. 5 mg/kg rat twice) | Total bilirubin in serum ([1]; i.p. 10 mg/kg rat twice) | GPT in serum ([1]; i.p. 10 mg/kg rat twice) | GOT in serum ([1]; i.p. 10 mg/kg rat twice) | Total bilirubin in serum ([2]; oral 5 mg/kg rat twice) | GPT in serum ([2]; oral 5 mg/kg rat twice) | GOT in serum ([2]; oral 5 mg/kg rat twice) | Total bilirubin in serum ([2]; oral 10 mg/kg rat twice) | GPT in serum ([2]; oral 10 mg/kg rat twice) | GOT in serum ([2]; oral 10 mg/kg rat twice) | Total bilirubin in serum ([2]; oral 15 mg/kg rat twice) | GPT in serum ([2]; oral 15 mg/kg rat twice) | GOT in serum ([2]; oral 15 mg/kg rat twice) | also measured |
| --- | --- | --- | --- | --- | --- | --- | --- | --- | --- | --- | --- | --- | --- | --- | --- | --- | --- | --- | --- |
| C=CCOC(=O)c1cc(C(=O)OCC=C)c2c(n1)C(=O)C(=O)c1cc(C(=O)OCC=C)[nH]c1-2 [PQQ triallyl ester] | 0.8 mg/dL | 538 U/l | 1132 U/l | 0.8 mg/dL | 322 U/l | 648 U/l | 0.6 mg/dL | 120 U/l | 480 U/l | 1.1 mg/dL | 619 U/l | 1409 U/l | 0.9 mg/dL | 570 U/l | 1184 U/l | 1.0 mg/dL | 593 U/l | 1742 U/l | Solubility (Solubility; acetone): Very soluble; Solubility (Solubility; ethanol): Very soluble; Solubility (Solubility; methanol): Very soluble; Solubility (Solubility; water): hardly soluble; Creatinine in serum (mice [3]; i.p. 40 mg/kg): 0.3 mg/dL; Urea nitrogen in serum (mice [3]; i.p. 40 mg/kg): 12 mg/dL; Glucose in serum (mice [3]; i.p. 40 mg/kg): 42 mg/dL; Creatinine in serum (mice [3]; i.p. 80 mg/kg): 0.2 mg/dL; Urea nitrogen in serum (mice [3]; i.p. 80 mg/kg): 12 mg/dL; Glucose in serum (mice [3]; i.p. 80 mg/kg): 47 mg/dL; Creatinine in serum (mice [3]; i.p. 160 mg/kg): 0.2 mg/dL; Urea nitrogen in serum (mice [3]; i.p. 160 mg/kg): 10 mg/dL; Glucose in serum (mice [3]; i.p. 160 mg/kg): 59 mg/dL; Creatinine in serum (mice [3]; i.p. 200 mg/kg): 0.1 mg/dL; Urea nitrogen in serum (mice [3]; i.p. 200 mg/kg): 9 mg/dL; Glucose in serum (mice [3]; i.p. 200 mg/kg): 64 mg/dL; creatinine in serum (in words) (mice [3]; i.p., versus no compound): nearly the same; glucose in serum (in words) (mice [3]; i.p., versus no compound): nearly the same; urea nitrogen in serum (in words) (mice [3]; i.p., versus no compound): nearly the same; kidney toxicity (in words) (mice [3]; mouse, in vivo, ip): no kidney toxicity was observed |
| COC(=O)c1cc(C(=O)OC)c2c(n1)C(=O)C(=O)c1cc(C(=O)OC)[nH]c1-2 [PQQ trimethyl ester] | 0.9 mg/dL | 447 U/l | 970 U/l | 0.5 mg/dL | 182 U/l | 544 U/l | 0.7 mg/dL | 388 U/l | 833 U/l | 0.8 mg/dL | 431 U/l | 926 U/l | 0.7 mg/dL | 330 U/l | 540 U/l | 1.0 mg/dL | 701 U/l | 1260 U/l | Creatinine in serum (mice [4]; 150 mg/kg): 0.9 mg/dL; Urea nitrogen in serum (mice [4]; 150 mg/kg): 22 mg/dL; Glucose in serum (mice [4]; 150 mg/kg): 72 mg/dL; Creatinine in serum (mice [4]; 400 mg/kg): 0.7 mg/dL; Urea nitrogen in serum (mice [4]; 400 mg/kg): 20 mg/dL; Glucose in serum (mice [4]; 400 mg/kg): 55 mg/dL; Creatinine in serum (mice [4]; 1000 mg/kg): 0.7 mg/dL; Urea nitrogen in serum (mice [4]; 1000 mg/kg): 17 mg/dL; Glucose in serum (mice [4]; 1000 mg/kg): 60 mg/dL |
